Experimental data as given in patent publication US12590953B2, “Methods for screening cereblon modifying compounds” (CELGENE CORPORATION, priority 2018, dated 2026).
Peptide text beside a SMILES is read from it. * marks the point of attachment. Cbz = O=C(OCc1ccccc1)*

Columns and labels:
[1] = system: SALL4 binding to cereblon; type: cell-based, human
Experimental: Binding of full length SALL4 to cereblon in cells was then tested by co-immunoprecipitation (see FIG. 3). HA-tagged WT, G416A, or G600A SALL4 was immunoprecipitated from cells, and the level of co-purifying cereblon was assessed by western blot. Briefly, a Lenti-x 293 cell line with a CRISPR-cas9 knock-out of cereblon and stable expression of HA-tagged SALL4 or SALL4 mutants was transfected with either GST-cereblon or empty vector. […] The amount of co-purifying GST-cereblon was then assessed by western blot.

ZFP91 = target: T1, ZFP91 (Homo sapiens, UniProt Q96JP5+Q96SW2); assay: Degradation of ZFP91 in Lenti-x 293 cells (control substrate); type: cell-based; details: Lenti-x 293 cell lines expressing cereblon
T1 construct: endogenous in cells; host or cells: Lenti-x 293 cell line with CRISPR-cas9 cereblon knock-out, transfected with GST-cereblon
T1 sequence (Q96JP5 2-570 limits assumed): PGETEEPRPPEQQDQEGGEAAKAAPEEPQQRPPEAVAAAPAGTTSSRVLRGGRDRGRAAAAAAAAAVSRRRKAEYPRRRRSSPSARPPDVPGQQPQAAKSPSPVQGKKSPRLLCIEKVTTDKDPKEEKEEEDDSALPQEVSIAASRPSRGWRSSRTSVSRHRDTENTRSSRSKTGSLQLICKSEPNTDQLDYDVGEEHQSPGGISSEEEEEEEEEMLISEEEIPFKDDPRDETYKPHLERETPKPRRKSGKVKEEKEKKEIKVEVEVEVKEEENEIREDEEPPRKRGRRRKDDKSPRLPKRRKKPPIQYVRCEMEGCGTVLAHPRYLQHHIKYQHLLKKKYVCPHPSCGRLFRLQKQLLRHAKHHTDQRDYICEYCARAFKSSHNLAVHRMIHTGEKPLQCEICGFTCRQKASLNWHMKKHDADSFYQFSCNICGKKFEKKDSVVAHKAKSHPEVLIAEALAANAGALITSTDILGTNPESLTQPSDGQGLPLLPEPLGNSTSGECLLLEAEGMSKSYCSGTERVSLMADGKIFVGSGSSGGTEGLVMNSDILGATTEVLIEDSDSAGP
T1 sequence (Q96SW2 whole entry): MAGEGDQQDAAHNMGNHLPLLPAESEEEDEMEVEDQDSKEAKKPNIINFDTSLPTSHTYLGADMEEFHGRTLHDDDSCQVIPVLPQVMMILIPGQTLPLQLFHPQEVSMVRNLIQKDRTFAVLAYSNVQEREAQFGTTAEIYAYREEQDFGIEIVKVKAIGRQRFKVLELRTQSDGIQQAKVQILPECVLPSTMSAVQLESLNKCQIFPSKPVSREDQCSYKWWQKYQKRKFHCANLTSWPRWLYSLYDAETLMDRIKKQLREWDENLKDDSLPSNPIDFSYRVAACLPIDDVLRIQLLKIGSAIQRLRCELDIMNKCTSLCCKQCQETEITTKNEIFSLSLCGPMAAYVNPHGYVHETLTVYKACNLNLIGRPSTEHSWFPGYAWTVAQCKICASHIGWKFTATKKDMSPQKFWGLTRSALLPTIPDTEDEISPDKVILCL
T1 sequence (Q16531 whole entry partner): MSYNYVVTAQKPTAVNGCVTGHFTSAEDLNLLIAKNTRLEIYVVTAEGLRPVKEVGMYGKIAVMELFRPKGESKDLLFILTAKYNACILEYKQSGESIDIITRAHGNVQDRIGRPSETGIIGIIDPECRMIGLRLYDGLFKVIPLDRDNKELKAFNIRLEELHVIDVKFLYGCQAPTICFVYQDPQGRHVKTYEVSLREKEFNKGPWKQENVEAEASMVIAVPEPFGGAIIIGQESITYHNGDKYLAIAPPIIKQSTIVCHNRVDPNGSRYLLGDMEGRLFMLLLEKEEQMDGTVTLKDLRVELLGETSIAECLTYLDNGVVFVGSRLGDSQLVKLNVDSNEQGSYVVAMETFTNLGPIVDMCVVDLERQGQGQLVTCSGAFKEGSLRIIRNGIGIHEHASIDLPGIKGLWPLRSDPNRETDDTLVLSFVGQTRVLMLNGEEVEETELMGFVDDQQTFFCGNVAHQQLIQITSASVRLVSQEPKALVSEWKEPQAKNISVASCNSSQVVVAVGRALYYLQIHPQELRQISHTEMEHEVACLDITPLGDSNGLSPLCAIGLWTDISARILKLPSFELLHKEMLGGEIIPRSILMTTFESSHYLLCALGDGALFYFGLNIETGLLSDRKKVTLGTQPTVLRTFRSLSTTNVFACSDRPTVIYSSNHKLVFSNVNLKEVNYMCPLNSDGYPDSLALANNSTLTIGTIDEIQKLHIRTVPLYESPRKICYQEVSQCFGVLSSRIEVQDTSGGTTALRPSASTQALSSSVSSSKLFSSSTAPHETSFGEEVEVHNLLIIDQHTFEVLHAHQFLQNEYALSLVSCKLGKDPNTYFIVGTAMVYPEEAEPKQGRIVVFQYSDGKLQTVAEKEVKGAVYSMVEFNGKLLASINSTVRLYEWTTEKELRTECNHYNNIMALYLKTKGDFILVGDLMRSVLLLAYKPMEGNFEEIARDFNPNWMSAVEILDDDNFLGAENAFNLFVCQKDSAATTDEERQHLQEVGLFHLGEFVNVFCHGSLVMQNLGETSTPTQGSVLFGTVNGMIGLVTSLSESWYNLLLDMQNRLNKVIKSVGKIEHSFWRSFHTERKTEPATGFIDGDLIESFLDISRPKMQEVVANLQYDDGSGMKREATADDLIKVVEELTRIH

[2] = target: T2, endogenous SALL4 in NCCIT, NETRA-2 c1.D1 and AN3-CA cancer cell lines (Homo sapiens, UniProt Q96SW2+Q9UJQ4); assay: Degradation of endogenous SALL4 in cancer cell lines, western blot; type: cell-based; details: 16 hour treatment; anti-SALL4 western blot
T2 construct: endogenous in cells; host or cells: NCCIT, NETRA-2 c1.D1 and AN3-CA cancer cell lines

SALL4 = target: T3, SALL4 (Homo sapiens, UniProt Q96SW2+Q9UJQ4); assay: SALL4 protein level in human iPS cells, immunoblot; type: cell-based; details: human iPS cells; 1 μM MLN4924 or 10 μM MG132 for 6 hours with thalidomide
T3 construct: host or cells: human iPS cells (CRBN wild-type and CRBN knock-out)
T3 sequence (Q9UJQ4 whole entry): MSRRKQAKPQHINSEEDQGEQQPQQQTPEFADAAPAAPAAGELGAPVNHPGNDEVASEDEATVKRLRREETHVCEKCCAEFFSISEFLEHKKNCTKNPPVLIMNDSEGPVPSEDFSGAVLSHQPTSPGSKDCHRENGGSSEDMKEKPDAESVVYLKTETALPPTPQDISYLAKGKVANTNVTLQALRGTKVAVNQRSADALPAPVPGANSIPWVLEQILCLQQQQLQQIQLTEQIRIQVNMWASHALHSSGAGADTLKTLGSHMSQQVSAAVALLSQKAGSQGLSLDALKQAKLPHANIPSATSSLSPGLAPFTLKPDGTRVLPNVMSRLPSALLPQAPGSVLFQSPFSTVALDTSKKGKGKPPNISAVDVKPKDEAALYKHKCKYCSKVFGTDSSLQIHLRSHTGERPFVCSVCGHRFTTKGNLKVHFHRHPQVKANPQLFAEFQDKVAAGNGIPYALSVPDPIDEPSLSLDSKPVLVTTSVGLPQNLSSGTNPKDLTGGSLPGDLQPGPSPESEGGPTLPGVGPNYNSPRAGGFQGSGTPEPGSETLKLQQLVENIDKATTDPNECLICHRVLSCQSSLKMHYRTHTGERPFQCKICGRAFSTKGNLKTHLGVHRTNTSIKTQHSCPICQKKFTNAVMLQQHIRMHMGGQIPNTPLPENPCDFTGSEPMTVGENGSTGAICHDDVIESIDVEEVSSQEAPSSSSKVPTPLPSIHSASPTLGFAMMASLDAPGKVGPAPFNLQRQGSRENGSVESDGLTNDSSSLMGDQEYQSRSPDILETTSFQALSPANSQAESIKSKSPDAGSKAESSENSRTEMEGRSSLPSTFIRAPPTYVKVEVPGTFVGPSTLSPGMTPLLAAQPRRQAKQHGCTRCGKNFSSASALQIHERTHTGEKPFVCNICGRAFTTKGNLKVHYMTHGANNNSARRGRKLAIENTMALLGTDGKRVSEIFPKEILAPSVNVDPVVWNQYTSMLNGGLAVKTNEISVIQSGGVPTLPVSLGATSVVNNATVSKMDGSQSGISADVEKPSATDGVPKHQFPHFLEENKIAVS
T3 sequence (Q96SW2 whole entry): as the sequence (Q96SW2 whole entry) above
T3 sequence (Q16531 whole entry partner): as the sequence (Q16531 whole entry partner) above
Experimental: Immunoblot analysis of whole cell lysates of CRBN wild-type (WT) and CRBN knock-out (−/−) human iPS cells was performed. Cells were treated with DMSO vehicle control (−) or thalidomide (Thal) at indicated concentrations for 16 hours (n=4, biological replicates).
Immunoblot analysis of whole cell lysates of human iPS cells treated with DMSO (−) or Thal (+) in the presence or absence of 1 μM MLN4924 or 10 μM MG132 for 6 hours were performed (n=2, biological replicates).
Human iPS cell lines ACS-1019 and ACS-1011 (derived from healthy donors) were obtained from ATCC. The hiPSCs were maintained in mTESR-1 medium (Stem Cell Technologies) in cell culture plates coated with a thin layer of Matrigel (BD Biosciences) incubated at 37° C. in a humidified 5% CO2 incubator according to the manufacturer's instruction. Cells were split through mechanic passaging with a glass pipet and enzymatically digestion with Dispase or Accutase every 2 to 3 days.
Human iPSCs, ACS-1019 was transduced with lentiviral vectors expressing CRISPR-Cas9 and small guide RNA targeting cereblon for 4 days. The resulting colonies were amplified and screened for cereblon knockout by immunoblot analysis with anti-CRBN65 antibody (Celgene).

With `Nc1cccc2c1C(=O)N(C1CCC(=O)NC1=O)C2=O` (stereo not shown) [pomalidomide] the “Binding of G416A SALL4 to cereblon” value ([1]; HA-tagged G416A SALL4, anti-HA pull-down) was “disrupted the binding significantly”, the “Binding of G600A SALL4 to cereblon” value ([1]; HA-tagged G600A SALL4, anti-HA pull-down) was “strong, compound-dependent binding to cereblon” and the “Binding of WT SALL4 to cereblon (co-purifying GST-cereblon, western blot)” value ([1]; HA-tagged WT SALL4, anti-HA pull-down) was “strong, compound-dependent binding to cereblon”. For the same compound, the ZFP91 degradation (ZFP91) was “exhibited compound-dependent degradation in all cell lines expressing cereblon” and the “Degradation of endogenous SALL4” value [2] was “Significant compound-dependent degradation of endogenous SALL4 was observed”.

In the case of `CC(C)C[C@@H](C=O)NC(=O)[C@H](CC(C)C)NC(=O)[C@H](CC(C)C)NC(=O)OCc1ccccc1` [MG132] (Cbz-Leu-Leu-Leu-aldehyde), the “Effect on thalidomide-induced reduction in SALL4 protein levels” value (SALL4) is reported as “prevented”.

In the case of `NS(=O)(=O)OC[C@@H]1C[C@@H](n2ccc3c(N[C@H]4CCc5ccccc54)ncnc32)C[C@@H]1O` [MLN4924], the “Effect on thalidomide-induced reduction in SALL4 protein levels” value (SALL4) is reported as “prevented”.
